Laboratory results taken from patent EP2486923B1, “Histone deacetylase (HDAC) inhibiting compounds and method of making same” (Dr. Felix Jäger und Dr. Stefan Drinkuth Laborgemeinschaft …, priority 2011, dated 2012).
Like-named read-outs stand apart in the source and are kept apart here.

What was measured:
Assay in all cases: Two-step fluorescence assay for determination of IC50
Type in all cases: biochemical
[1] = molecular target: T1, HDAC7 (Homo sapiens, UniProt Q8WUI4)
T1 sequence (Q8WUI4 1-952): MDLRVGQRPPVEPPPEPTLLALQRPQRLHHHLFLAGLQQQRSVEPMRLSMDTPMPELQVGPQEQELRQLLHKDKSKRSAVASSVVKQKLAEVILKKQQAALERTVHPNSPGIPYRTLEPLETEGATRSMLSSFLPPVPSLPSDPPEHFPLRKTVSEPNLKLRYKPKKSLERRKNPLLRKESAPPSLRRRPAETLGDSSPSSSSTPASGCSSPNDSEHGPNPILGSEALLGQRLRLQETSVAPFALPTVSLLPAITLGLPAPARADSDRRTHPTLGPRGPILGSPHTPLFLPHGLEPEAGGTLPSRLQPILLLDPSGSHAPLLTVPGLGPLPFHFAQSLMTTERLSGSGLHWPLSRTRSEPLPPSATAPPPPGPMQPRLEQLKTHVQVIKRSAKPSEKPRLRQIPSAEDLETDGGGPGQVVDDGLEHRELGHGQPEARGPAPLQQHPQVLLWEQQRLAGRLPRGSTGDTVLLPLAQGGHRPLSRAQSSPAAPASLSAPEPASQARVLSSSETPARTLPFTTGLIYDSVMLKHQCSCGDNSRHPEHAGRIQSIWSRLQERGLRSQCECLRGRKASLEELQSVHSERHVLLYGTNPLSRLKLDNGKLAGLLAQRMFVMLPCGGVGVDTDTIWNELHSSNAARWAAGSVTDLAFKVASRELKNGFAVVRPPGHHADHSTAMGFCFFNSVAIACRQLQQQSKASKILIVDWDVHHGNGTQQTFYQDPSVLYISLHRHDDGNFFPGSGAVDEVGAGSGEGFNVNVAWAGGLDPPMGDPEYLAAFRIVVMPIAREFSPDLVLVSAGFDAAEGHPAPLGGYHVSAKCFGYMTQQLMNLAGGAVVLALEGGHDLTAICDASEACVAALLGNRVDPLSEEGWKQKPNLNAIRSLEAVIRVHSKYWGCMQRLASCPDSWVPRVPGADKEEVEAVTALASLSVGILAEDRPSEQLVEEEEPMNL
Experimental: (§1) In order to evaluate the inhibitory characteristics of example compounds of the invention, IC50 values were determined for such compounds. […] A two-step assay was used for this purpose.
(§2) To obtain the IC50 value for an individual compound/HDAC pair, a two-step assay can be performed based on a fluorescence signal. In principle, an ε-acetylated lysine substrate is deacetylated by histone-deacetylases in the first step. Trypsin releases detectable 7-amino-4-methylcoumarin (ex = excitation wavelength: 390 nm, em = emission wavelength: 460 nm) by cleaving the substrate at the deacetylated lysine in a subsequent reaction^[9]. The enzyme activity is inhibited by a suitable HDACi.
(§3) The obtained data are interpreted using a four parameter fit. Based on this fit, the IC50 value can be estimated. Analysis ot the data and calculation of the IC50 values was accomplished using a four-parameter logistic model protocol as previously described by Vølund^[16]. For nonlinear fits the Levenberg-Marquardt algorithm was applied^[17],[18]. […] Table 1: IC50 values in µM for synthesized compounds of the invention with a perfluorinated linker. […] HDAH = HDAC-like amidohydrolase

[2] = molecular target: T2, HDAC6 (Homo sapiens, UniProt Q9UBN7)
T2 sequence (Q9UBN7 1-1215): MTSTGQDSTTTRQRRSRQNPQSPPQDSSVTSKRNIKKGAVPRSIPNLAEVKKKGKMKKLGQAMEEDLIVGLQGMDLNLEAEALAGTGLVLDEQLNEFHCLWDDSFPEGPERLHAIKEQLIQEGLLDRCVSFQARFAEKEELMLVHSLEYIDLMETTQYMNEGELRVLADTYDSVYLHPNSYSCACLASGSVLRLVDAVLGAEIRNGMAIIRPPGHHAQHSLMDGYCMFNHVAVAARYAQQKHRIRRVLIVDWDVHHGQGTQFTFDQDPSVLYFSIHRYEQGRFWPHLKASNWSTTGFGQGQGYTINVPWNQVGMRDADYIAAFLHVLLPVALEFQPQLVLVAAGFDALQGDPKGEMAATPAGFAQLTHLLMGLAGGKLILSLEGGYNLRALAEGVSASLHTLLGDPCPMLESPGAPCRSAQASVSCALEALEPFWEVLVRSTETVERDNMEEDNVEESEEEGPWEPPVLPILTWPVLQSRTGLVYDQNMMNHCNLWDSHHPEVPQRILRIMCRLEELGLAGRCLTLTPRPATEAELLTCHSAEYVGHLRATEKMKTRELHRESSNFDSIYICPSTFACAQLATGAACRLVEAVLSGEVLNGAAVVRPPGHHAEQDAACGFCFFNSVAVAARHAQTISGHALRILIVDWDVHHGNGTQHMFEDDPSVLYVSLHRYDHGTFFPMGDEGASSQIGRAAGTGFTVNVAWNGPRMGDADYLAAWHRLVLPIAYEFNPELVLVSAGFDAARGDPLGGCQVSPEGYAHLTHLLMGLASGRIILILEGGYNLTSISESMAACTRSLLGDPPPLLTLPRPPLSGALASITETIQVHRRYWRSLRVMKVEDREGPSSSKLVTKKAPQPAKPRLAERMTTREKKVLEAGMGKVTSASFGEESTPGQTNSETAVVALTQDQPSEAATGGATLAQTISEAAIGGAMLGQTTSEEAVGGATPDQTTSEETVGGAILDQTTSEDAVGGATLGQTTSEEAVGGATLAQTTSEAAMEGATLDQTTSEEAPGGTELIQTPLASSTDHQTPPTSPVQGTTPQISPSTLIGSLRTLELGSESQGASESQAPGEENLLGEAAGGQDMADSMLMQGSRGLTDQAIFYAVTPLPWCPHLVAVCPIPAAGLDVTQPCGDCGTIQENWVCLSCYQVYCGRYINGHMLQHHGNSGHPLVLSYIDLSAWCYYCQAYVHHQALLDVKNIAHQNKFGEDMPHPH
Experimental: as §1, §2, §3

[3] = molecular target: T3, HDAC8 (Homo sapiens, UniProt Q9BY41)
T3 sequence (Q9BY41 1-377): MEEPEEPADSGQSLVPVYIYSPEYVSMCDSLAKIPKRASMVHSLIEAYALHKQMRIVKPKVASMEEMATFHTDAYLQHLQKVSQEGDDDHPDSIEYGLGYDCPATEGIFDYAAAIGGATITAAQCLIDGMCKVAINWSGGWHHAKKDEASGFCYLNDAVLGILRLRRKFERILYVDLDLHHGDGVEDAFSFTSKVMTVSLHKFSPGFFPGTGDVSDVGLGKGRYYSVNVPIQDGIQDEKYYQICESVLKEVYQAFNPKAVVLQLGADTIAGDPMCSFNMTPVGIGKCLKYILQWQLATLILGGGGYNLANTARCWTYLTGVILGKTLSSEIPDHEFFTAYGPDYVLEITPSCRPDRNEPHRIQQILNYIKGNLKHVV
Experimental: as §1, §2, §3

[4] = molecular target: T4, HDAH (Alcaligenes sp., UniProt Q70I53)
T4 sequence (Q70I53 1-369): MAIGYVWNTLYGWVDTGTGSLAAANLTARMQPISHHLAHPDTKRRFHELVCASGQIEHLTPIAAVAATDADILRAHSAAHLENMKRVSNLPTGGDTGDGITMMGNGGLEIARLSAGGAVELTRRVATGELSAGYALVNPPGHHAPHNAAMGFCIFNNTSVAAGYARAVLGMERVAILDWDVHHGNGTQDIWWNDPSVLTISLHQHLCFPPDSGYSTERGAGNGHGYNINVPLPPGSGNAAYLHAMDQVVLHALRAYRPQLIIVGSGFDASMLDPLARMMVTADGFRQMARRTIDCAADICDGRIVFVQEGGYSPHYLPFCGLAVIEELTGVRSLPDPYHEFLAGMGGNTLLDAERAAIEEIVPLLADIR
Experimental: as §1, §2, §3

[5] = molecular target: HDAC1 (Homo sapiens, UniProt Q13547)
Chain of HDAC1 (Q13547 whole entry): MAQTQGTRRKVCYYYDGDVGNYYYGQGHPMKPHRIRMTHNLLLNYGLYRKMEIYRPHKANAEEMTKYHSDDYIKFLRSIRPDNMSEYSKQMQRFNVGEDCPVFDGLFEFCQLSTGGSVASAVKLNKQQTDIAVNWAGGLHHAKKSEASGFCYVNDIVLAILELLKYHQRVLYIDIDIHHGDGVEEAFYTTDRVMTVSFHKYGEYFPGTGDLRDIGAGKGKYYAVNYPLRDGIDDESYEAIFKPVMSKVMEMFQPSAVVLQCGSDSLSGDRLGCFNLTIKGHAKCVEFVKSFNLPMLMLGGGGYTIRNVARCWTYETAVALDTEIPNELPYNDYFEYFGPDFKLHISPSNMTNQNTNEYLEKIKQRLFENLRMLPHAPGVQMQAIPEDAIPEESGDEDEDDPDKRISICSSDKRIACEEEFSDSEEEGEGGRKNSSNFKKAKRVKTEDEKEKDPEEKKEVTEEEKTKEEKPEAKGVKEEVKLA
Experimental: as §1, §2, §3

[6] = ε-acetylated lysine substrate, trypsin release of 7-amino-4-methylcoumarin, four parameter fit, read-out: IC50 values HDAC7
[7] = ε-acetylated lysine substrate, trypsin release of 7-amino-4-methylcoumarin, four parameter fit, read-out: IC50 values HDAC6
[8] = HDAC-like amidohydrolase, ε-acetylated lysine substrate, trypsin release of 7-amino-4-methylcoumarin, four parameter fit, read-out: IC50 values HDAH
[9] = ε-acetylated lysine substrate, trypsin release of 7-amino-4-methylcoumarin, four parameter fit, read-out: IC50 values HDAC1
[10] = ε-acetylated lysine substrate, trypsin release of 7-amino-4-methylcoumarin, four parameter fit, read-out: IC50 values HDAC8

SMILES: O=C(NO)C(F)(F)C(F)(F)C(F)(F)C(F)(F)C(F)(F)C(F)(F)C(=O)Nc1ccc2ccc3cccc4ccc1c2c34 [LU234, 2,2,3,3,4,4,5,5,6,6,7,7-Dodecafluorooctanedioic acid hydroxyamide pyren-1-ylamide]
- IC50 [1, 6]: > 100 µM
- IC50 [2, 7]: 20.2 µM
- IC50 [3]: 77.8 µM
- IC50 [4, 8]: 1.48 µM
- IC50 [5, 9]: 28.3 µM

SMILES: N#Cc1ccc(NC(=O)C(F)(F)C(F)(F)C(F)(F)C(F)(F)C(F)(F)C(F)(F)C(=O)NO)cc1 [LU225 A, 2,2,3,3,4,4,5,5,6,6,7,7-Dodecafluorooctanedioic acid (4-cyanophenyl)amide hydroxyamide]
- IC50 [1, 6]: 53.7 µM
- IC50 [2, 7]: > 100 µM
- IC50 [3, 10]: 73.9 µM
- IC50 [4]: 0.7 µM
- IC50 [5, 9]: 21.8 µM

SMILES: O=C(NO)C(F)(F)C(F)(F)C(F)(F)C(F)(F)C(F)(F)C(F)(F)C(=O)Nc1ccccc1 [LU210, 2,2,3,3,4,4,5,5,6,6,7,7-Dodecafluorooctanedioic acid hydroxyamide phenyl-amide]
- IC50 [1]: 14.8 µM
- IC50 [2, 7]: 12.5 µM
- IC50 [4, 8]: 1.67 µM
- IC50 [5]: 17.9 µM

SMILES: O=C(NO)C(F)(F)C(F)(F)C(F)(F)C(F)(F)C(F)(F)C(F)(F)C(=O)Nc1nc(-c2ccccc2)cs1 [LU235, 2,2,3,3,4,4,5,5,6,6,7,7-Dodecafluorooctanedioic acid hydroxyamide (4-phenylthiazol-2-yl)amide]
- IC50 [1, 6]: 1.77 µM
- IC50 [2, 7]: 6.47 µM
- IC50 [3, 10]: 2.1 µM
- IC50 [4, 8]: 5.11 µM
- IC50 [5, 9]: 3.31 µM

SMILES: O=C(NO)C(F)(F)C(F)(F)C(F)(F)C(F)(F)C(F)(F)C(F)(F)C(=O)Nc1ccc(Cl)cc1 [LU223, 2,2,3,3,4,4,5,5,6,6,7,7-Dodecafluorooctanedioic acid (4-chlorophenyl)amide hydroxyamide]
- IC50 [1, 6]: 26.8 µM
- IC50 [2]: 26.3 µM
- IC50 [3, 10]: 73 µM
- IC50 [4]: 0.72 µM
- IC50 [5, 9]: 15.1 µM

SMILES: O=C(NO)C(F)(F)C(F)(F)C(F)(F)C(F)(F)C(F)(F)C(F)(F)C(=O)Nc1ccc(-c2cnnn2-c2ccccc2)cc1 [LU236, 2,2,3,3,4,4,5,5,6,6,7,7-Dodecafluorooctanedioic acid hydroxyamide [4-(1-phenyl-1H-[1,2,3]triazol-5-yl)phenyl]amide]
- IC50 [1, 6]: 16.4 µM
- IC50 [2, 7]: 56.6 µM
- IC50 [3]: > 100 µM
- IC50 [4, 8]: 10.4 µM
- IC50 [5, 9]: 83.1 µM

SMILES: O=C(NO)C(F)(F)C(F)(F)C(F)(F)C(F)(F)C(F)(F)C(F)(F)C(=O)Nc1ccc(-c2ccccc2)cc1 [LU229, 2,2,3,3,4,4,5,5,6,6,7,7-Dodecafluorooctanedioic acid biphenyl-4-ylamide hydroxyamide]
- IC50 [1]: 22 µM
- IC50 [2, 7]: 59.1 µM
- IC50 [3, 10]: > 100 µM
- IC50 [4, 8]: 0.78 µM
- IC50 [5, 9]: 37.9 µM

SMILES: Cc1ccc(NC(=O)C(F)(F)C(F)(F)C(F)(F)C(F)(F)C(F)(F)C(F)(F)C(=O)NO)cc1 [LU222, 2,2,3,3,4,4,5,5,6,6,7,7-Dodecafluorooctanedioic acid hydroxyamide 4-methyl-phenylamide]
- IC50 [1]: 84.8 µM
- IC50 [2, 7]: > 100 µM
- IC50 [3]: 87.6 µM
- IC50 [4, 8]: 0.86 µM
- IC50 [5, 9]: 16.3 µM

SMILES: CC(=O)Nc1ccc(NC(=O)C(F)(F)C(F)(F)C(F)(F)C(F)(F)C(F)(F)C(F)(F)C(=O)NO)cc1 [LU224, 2,2,3,3,4,4,5,5,6,6,7,7-Dodecafluorooctanedioic acid (4-acetylaminophenyl)-amide hydroxyamide]
- IC50 [1, 6]: 21.5 µM
- IC50 [2, 7]: 10.5 µM
- IC50 [3, 10]: 76.2 µM
- IC50 [4, 8]: 3.41 µM
- IC50 [5, 9]: 21.8 µM

SMILES: CCc1cccc(NC(=O)C(F)(F)C(F)(F)C(F)(F)C(F)(F)C(F)(F)C(F)(F)C(=O)NO)c1 [LU232, 2,2,3,3,4,4,5,5,6,6,7,7-Dodecafluorooctanedioic acid (3-ethylphenyl)amide hydroxyamide]
- IC50 [1, 6]: 4.97 µM
- IC50 [2]: 1.55 µM
- IC50 [3, 10]: 21.3 µM
- IC50 [4, 8]: 9.18 µM
- IC50 [5]: 19.9 µM

SMILES: O=C(NO)C(F)(F)C(F)(F)C(F)(F)C(F)(F)C(F)(F)C(F)(F)C(=O)Nc1ccc(I)cc1 [LU227, 2,2,3,3,4,4,5,5,6,6,7,7-Dodecafluorooctanedioic acid hydroxyamide (4-iodo-phenyl)amide]
- IC50 [1, 6]: 6.86 µM
- IC50 [2, 7]: 5.13 µM
- IC50 [3, 10]: 75.8 µM
- IC50 [4, 8]: 0.91 µM
- IC50 [5, 9]: 16.9 µM
